From ChEMBL document CHEMBL5532707, “SETDB1 as a cancer target: challenges and perspectives in drug design” (RSC Med Chem, 2024)

Columns and labels:
cells = details: Homo sapiens, MDA-MB-231, 48 h
Description: Downregulation of H3K9me2 level in human MDA-MB-231 cells measured after 48 hrs by Western blot analysis

MDA-MB-231 = test: Antiproliferative activity against human MDA-MB-231 cells by MTT assay; assay type: functional, cell-based

Molecule `COc1cc2c(NC3CCN(C(C)C)CC3)nc(C3CCCCC3)nc2cc1OCCCN1CCCC1` has an IC50 (cells) of 81 nM.
For `COc1cc2nc(N3CCCN(C)CC3)nc(NC3CCN(Cc4ccccc4)CC3)c2cc1OC`, the EC50 (MDA-MB-231) was 2700 nM and the IC50 (cells) was 500 nM.
